The values that follow come from patent US12433865B2, “Compositions comprising PGI2-receptor agonists and processes for the preparation thereof” (Arena Pharmaceuticals, Inc., priority 2018, dated 2025).

The data set in a line: Plasma half-life. Type of data set: in vivo.

The half-life is how long it takes for the measured level to halve. Read a low half-life as rapid decline. For the compound `O=C(O)COC[C@H]1CC[C@H](COC(=O)N(c2ccccc2)c2ccc(Cl)cc2)CC1` [Compound 1, 2-(((1r,4r)-4-(((4-chlorophenyl)(phenyl)carbamoyloxy)methyl)cyclohexyl)methoxy)acetic acid], the half-life is approximately 1440 min.
